Results taken from patent EP2067861A1, “Animals of the rattus genus wherein msh6 expression is functionally decreased and methods for the generation of specific mutants therefrom” (Koninklijke Nederlandse Akademie van Wetenschappen, priority 2007, dated 2009).
Values joined by “and” are separate entries in the source; they are usually repeats but may differ in a detail not shown here. Equal values may be shown once.

Assays:
A:T base pairs = conditions: Justice et al. (1999); cited from earlier work
wild-type males = test: Survival of ENU treated wild-type males (previous studies); format: in vivo, rat; conditions: unpublished data
Excerpt: The efficiency of ENU is dependent of the dose, reflected by a higher mutagenicity after three weekly administrations of low doses of the mutagen compared to a single high-dose injection (Justice et al. (2000) Mamm Genome 11, 484-8). Furthermore it has been shown that higher ENU concentrations increase the mutation frequency (Smits et al. (2004) Pharmacogenet Genomics 16, 159-69; Smits and Cuppen (2006) Trends Genet. 22, 232-40). To determine the optimal ENU concentration we performed an ENU dose-response experiment and determined the fertility of the founders. At 12 weeks of age msh6^-/- males were treated with 3 weekly doses of different concentrations of the mutagen. Fertility was determined after a full cycle of spermatogenesis (± 10 weeks) by breeding and/or histological analysis of the testes. At concentrations of 35, 30 and 25 mg/kg, respectively 1/8, 5/8 and 4/6 males were fertile (Table 5). Compared to earlier studies, where at 40 and 35 mg/kg ENU respectively 6/10 and 10/10 rats are fertile (Smits and Cuppen (2006) Trends Genet. 22, 232-40), this is a considerable decrease. It is known that MSH6 deficiency reduces lifespan in both rats (van Boxtel et al. (2007) submitted) and mice (Edelmann (1997) Cell 91, 467-77) as a result of tumor development. MSH6 deficiency increased ENU sensitivity not only in fertility, but also in survival. […]

Control = Control 3 x 40 mg/kg ENU, cited from earlier work
wild-type rats = conditions: cited from earlier work
[1] = 362 pups, 37,27 x 10^6 bases screened

CCN(N=O)C(N)=O [ENU, N-ethyl-N-nitrosourea]
A:T->C:G transversions (A:T base pairs): 5%
A:T->G:C transitions (A:T base pairs): 38%
A:T->T:A transversions (A:T base pairs): 44%
G:C ->A:T transitions (A:T base pairs): 8%
G:C->C:G transversions (A:T base pairs): 3%
G:C->T:A transversions (A:T base pairs): 2%
missense mutations (A:T base pairs): about 64%
nonsense mutations (A:T base pairs): ~10%
splicing errors (A:T base pairs): ~26%
survived till 1,5 years of age (wild-type males; 35 mg/kg bodyweight ENU): 9 out of 10
survived till 1,5 years of age (wild-type males; 40 mg/kg bodyweight ENU): 10 out of 10
# Mutations - nonsense (Control; [1]): 0
# Mutations - total (Control; [1]): 30
# Mutations - missense (Control): 17
# Mutations - non-coding (Control): 6
# Mutations - silent (Control): 7
Mutation Frequencies (Control; highest ENU-induced mutation frequency in rats): 8.05 x 10^-7
rats fertile (wild-type rats; 35 mg/kg ENU, earlier studies (Smits and Cuppen 2006)): 10/10
# Fertile males (wild-type rats; Control 3 x 40 mg of ENU per kg bodyweight, 10 males injected): 6/10 and 6
